Laboratory results reported in ChEMBL document CHEMBL4118032, “Geranylpyrrol A and Piericidin F from Streptomyces sp. CHQ-64 ΔrdmF” (J Nat Prod, 2017).
pIC50: −log10 of the molar value. Counter-ions that a name gives are not always drawn.

What was measured:
Type in all cases: functional, cell-based
NB-4 = assay: Cytotoxicity against human NB4 cells after 72 hrs by MTT assay; conditions: NB-4, 72 h
HCT-116 = assay: Cytotoxicity against human HCT116 cells after 24 hrs by sulforhodamine B assay; conditions: HCT-116, 24 h
NCI-H1975 = assay: Cytotoxicity against human NCI-H1975 cells after 24 hrs by sulforhodamine B assay; conditions: NCI-H1975, 24 h
A549 = assay: Cytotoxicity against human A549 cells after 24 hrs by sulforhodamine B assay; conditions: A549, 24 h
HeLa = assay: Cytotoxicity against human HeLa cells after 24 hrs by sulforhodamine B assay
K562 = assay: Cytotoxicity against human K562 cells after 72 hrs by MTT assay; conditions: K562, 72 h
HL-60 = assay: Cytotoxicity against human HL60 cells after 72 hrs by MTT assay; conditions: HL-60, 72 h
[1] = Cytotoxicity against human MCF7/ADM cells after 24 hrs by sulforhodamine B assay

Compound | pIC50 (NB-4) | pIC50 (HCT-116) | pIC50 (NCI-H1975) | pIC50 (A549) | pIC50 (HeLa) | pIC50 (K562) | pIC50 (HL-60) | pIC50 [1]
COC(=O)c1[nH]cc(C/C=C(\C)CCC=C(C)C)c1NC(C)=O | < 4.52 | < 4.52 | < 4.52 | < 4.52 | < 4.52 | < 4.52 | < 4.52 | < 4.52
C/C=C(\C)[C@H](OC)[C@H](C)/C=C(C)/C=C/C/C(C)=C/Cc1nc(OC)cc(O)c1C | 7.43 | < 4.52 | 6.31 | 6.25 | 8.52 | < 4.52 | < 4.52 | < 4.52
COc1cccc2c1C(=O)c1c(O)c3c(c(O)c1C2=O)C[C@@](O)(C(=O)CO)C[C@@H]3O[C@H]1C[C@H](N)[C@H](O)[C@H](C)O1 [DOXORUBICIN HYDROCHLORIDE] | 6.40 | – | 6.70 | – | – | – | – | 4.60
